Experimental data reported in ChEMBL document CHEMBL1201862, “PubChem BioAssay data set” (2004).
Values belong to the molecule of their own block, whether it stands above or below them. Active and inactive are the calls of the source.

Tests used:
Cytochrome P450 1A2 = molecular target: T1, Cytochrome P450 1A2 (Homo sapiens, UniProt P05177);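 note: PubChem cytochrome P450 panel assay, CYP1A2 panel member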
T1 sequence (P05177 whole entry): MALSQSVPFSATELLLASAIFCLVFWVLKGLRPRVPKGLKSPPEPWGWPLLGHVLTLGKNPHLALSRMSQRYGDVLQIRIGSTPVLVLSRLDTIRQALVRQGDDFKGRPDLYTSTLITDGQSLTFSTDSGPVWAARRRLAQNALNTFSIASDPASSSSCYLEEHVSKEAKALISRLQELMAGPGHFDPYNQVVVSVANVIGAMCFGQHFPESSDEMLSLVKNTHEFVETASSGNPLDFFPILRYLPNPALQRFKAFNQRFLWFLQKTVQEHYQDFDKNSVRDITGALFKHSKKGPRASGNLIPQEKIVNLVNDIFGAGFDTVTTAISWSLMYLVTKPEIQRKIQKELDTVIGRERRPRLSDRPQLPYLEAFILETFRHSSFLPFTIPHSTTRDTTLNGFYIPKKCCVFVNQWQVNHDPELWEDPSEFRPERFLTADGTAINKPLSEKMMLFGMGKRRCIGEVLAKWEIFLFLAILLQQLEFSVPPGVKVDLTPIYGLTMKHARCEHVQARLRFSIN

Cytochrome P450 3A4 = Cytochrome P450 3A4 (Homo sapiens, UniProt P08684);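 note: CYP3A4 tested as one member of a cytochrome P450 panel screen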
Chain of Cytochrome P450 3A4 (P08684 whole entry): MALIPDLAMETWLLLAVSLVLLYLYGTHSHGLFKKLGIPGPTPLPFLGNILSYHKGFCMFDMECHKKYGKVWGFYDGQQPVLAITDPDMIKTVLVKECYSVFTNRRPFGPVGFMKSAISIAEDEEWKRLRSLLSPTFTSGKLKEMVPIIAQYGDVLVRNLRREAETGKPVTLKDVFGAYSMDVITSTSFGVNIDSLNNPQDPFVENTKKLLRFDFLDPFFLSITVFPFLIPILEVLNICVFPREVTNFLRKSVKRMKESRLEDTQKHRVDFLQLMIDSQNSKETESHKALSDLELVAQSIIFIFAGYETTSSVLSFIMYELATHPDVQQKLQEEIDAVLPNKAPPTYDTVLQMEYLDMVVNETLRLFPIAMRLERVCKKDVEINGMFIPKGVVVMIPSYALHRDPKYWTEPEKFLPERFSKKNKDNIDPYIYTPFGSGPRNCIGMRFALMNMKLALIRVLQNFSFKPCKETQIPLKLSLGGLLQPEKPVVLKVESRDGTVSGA

Cytochrome P450 2C19 = Cytochrome P450 2C19 (Homo sapiens, UniProt P33261); assay: Cytochrome panel assay with activity outcomes. Panel member name: p450-cyp2c19 Compounds with AC50 equal or less than 10 uM are considered active; assay type: functional
Chain of Cytochrome P450 2C19 (P33261 whole entry): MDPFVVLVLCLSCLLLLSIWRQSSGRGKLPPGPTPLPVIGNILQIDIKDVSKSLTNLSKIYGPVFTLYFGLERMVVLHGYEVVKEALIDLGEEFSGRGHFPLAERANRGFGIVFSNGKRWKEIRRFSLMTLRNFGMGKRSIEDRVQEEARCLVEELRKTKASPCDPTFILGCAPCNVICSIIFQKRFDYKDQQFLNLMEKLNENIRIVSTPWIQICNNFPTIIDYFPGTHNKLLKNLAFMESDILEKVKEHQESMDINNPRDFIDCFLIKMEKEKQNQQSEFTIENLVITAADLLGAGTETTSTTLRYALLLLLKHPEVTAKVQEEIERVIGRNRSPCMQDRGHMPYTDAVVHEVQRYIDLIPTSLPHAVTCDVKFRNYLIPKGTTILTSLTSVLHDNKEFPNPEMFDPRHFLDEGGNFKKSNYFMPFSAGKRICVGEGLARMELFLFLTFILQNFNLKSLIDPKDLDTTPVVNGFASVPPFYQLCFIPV

Cytochrome P450 2C9 = Cytochrome P450 2C9 (Homo sapiens, UniProt P11712)
Chain of Cytochrome P450 2C9 (P11712 whole entry): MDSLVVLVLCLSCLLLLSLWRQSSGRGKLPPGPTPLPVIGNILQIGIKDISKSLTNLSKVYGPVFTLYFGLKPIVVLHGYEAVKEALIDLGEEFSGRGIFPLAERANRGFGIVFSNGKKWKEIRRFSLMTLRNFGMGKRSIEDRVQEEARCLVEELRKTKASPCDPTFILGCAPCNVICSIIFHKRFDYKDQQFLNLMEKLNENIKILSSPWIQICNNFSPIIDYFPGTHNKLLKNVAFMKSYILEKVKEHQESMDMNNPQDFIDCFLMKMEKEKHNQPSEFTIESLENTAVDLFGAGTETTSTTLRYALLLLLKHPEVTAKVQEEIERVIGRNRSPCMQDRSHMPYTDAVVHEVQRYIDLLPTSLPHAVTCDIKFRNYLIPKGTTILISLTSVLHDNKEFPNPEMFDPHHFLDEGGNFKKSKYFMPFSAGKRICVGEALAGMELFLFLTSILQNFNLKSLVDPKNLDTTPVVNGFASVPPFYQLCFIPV

[1] = Trypanosoma cruzi growth suppression in host cells – NIH3T3 host cells, beta-gal luminescence, confirmation (AID 2044); assay type: functional, cell-based;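 note: intracellular parasites grown in NIH/3T3 mouse fibroblasts as host cells; luminescent beta-galactosidase reporter signal from transgenic T. cruzi replicating inside host cells; inhibitors lower the luminescence signal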
[2] = NIH3T3 cell viability loss – ATP luminescence, mouse fibroblasts, counter-screen, dose response (AID 2010); assay type: functional, cell-based;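 note: cells exposed to compound for about 90 hours before reading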

Structure (SMILES): COCCNC(=O)/C(C#N)=C/c1ccc(-c2ccc(OC)cc2[N+](=O)[O-])o1
AC50 (Cytochrome P450 2C19; read-out: AC50): 3.55 µM (inconclusive)
AC50 (Cytochrome P450 1A2): 2 µM (inconclusive)
AC50 (Cytochrome P450 3A4): 3.16 µM (inconclusive)
AC50 (Cytochrome P450 2C9): 39.8 µM (inconclusive)

Structure (SMILES): CCN(C(S)=Nc1ccccc1F)C1CCCCC1
AC50 (Cytochrome P450 3A4): 14.1 µM (inconclusive)

Structure (SMILES): CCN(CC1CCCN(CCc2cccc(OC)c2)C1)C(=O)c1ccc(COC)o1 (configuration not stated)
EC50 [1]: 0.445 µM (active)
EC50 [2]: 30.9 µM (active)

Structure (SMILES): CCN(CC)C(=O)CSc1nc(O)cc(=O)n1CC
AC50 (Cytochrome P450 3A4): 14.1 µM (inconclusive)

Structure (SMILES): CCn1c(=O)[nH]c2ccccc21
AC50 (Cytochrome P450 1A2): 31.6 µM (inconclusive)

Structure (SMILES): C=C(C)[C@H]1CC=C(C)/C(=N/NC(=O)CNc2ccccc2OC)C1
AC50 (Cytochrome P450 2C19; read-out: AC50): 11.2 µM (inconclusive)

Structure (SMILES): CN1CCN(S(=O)(=O)c2cnccc2N2CCN(c3cccc(Cl)c3)CC2)CC1
EC50 [1]: 1 µM (active)
EC50 [2]: > 60 µM (inconclusive)

Structure (SMILES): COC(=O)[C@@H]1CC[C@H](C)[C@@H](c2ccc(C)cc2)N1C(=O)c1ccc(/C=N\OC[C@@H](O)[C@H]2O[C@H]3OC(C)(C)O[C@H]3[C@@H]2O)cc1
AC50 (Cytochrome P450 3A4): 6.31 µM (inconclusive)

Structure (SMILES): c1ccc(NN(Cc2cnccn2)c2ccccc2)cc1
AC50 (Cytochrome P450 3A4): 1 µM (inconclusive)

Structure (SMILES): O=C(Nc1ccc(F)cc1)NC1CCN(Cc2ccccc2)CC1
EC50 [1]: 0.476 µM (active)
EC50 [2]: > 60 µM (not active)

Structure (SMILES): COCCn1c(=O)c(-c2cc(F)cc(F)c2)nc2cnc(N3CCNCC3)nc21
AC50 (Cytochrome P450 3A4): 20 µM (inconclusive)

Structure (SMILES): COC(=O)C1=CN(c2cc(C)cc(C)c2)C=C(C(=O)OC)C1c1cccc(F)c1
EC50 [1]: 3.09 µM (active)
EC50 [2]: > 60 µM (not active)

Structure (SMILES): CCC(=O)Nc1ccc(NC(=O)CSc2nnnn2-c2cccnc2)cc1C
AC50 (Cytochrome P450 2C19): inconclusive

Structure (SMILES): CSC(=N)N/N=C/c1ccc([N+](=O)[O-])cc1
AC50 (Cytochrome P450 2C9): 10 µM (inconclusive)

Next, values leading:

AC50 (Cytochrome P450 1A2): 14.1 µM (inconclusive)
AC50 (Cytochrome P450 3A4): 12.6 µM (inconclusive)
Structure (SMILES): O=C(CC(=O)N/N=C\c1c(Cl)cccc1Cl)NCc1ccccc1

AC50 (Cytochrome P450 2C19): inconclusive
AC50 (Cytochrome P450 2C9): 8.91 µM (inconclusive)
Structure (SMILES): CCN(CC)C(=O)c1sc2[nH]c(=S)n(-c3ccccc3)c(=O)c2c1C

AC50 (Cytochrome P450 3A4): 35.5 µM (inconclusive)
AC50 (Cytochrome P450 2C9): 3.55 µM (inconclusive)
Structure (SMILES): CCOC(=O)c1ccc(Nc2nc(C(=O)OCC)nc3ccccc23)cc1

AC50 (Cytochrome P450 2C19; read-out: AC50): 39.8 µM (inconclusive)
Structure (SMILES): CCN1CCN(c2nc(-c3ccccn3)nc3ccccc23)CC1

AC50 (Cytochrome P450 3A4): 5.01 µM (inconclusive)
Structure (SMILES): C[C@@H](c1ccccc1)N1C(=O)[C@H]2[C@H]3[C@H](O)[C@H](O)C/C(=N/OCc4ccccc4)[C@@H]3CC[C@@H]2C1=O

AC50 (Cytochrome P450 3A4): 25.1 µM (inconclusive)
Structure (SMILES): COc1cccc(C2=NOC(C(=O)NCc3ccccc3)C2)c1 (configuration not stated)

AC50 (Cytochrome P450 3A4): 15.8 µM (inconclusive)
AC50 (Cytochrome P450 2C9): 35.5 µM (inconclusive)
Structure (SMILES): CN(C)C(=O)CSC1c2ccccc2C(=O)N1c1ccccc1 (configuration not stated)

AC50 (Cytochrome P450 1A2): 2.51 µM (inconclusive)
AC50 (Cytochrome P450 3A4): 12.6 µM (inconclusive)
Structure (SMILES): COc1ccc(-n2c(=O)c(-c3ccc(F)c(F)c3)nc3cncnc32)cc1

AC50 (Cytochrome P450 3A4): 39.8 µM (inconclusive)
Structure (SMILES): Cc1nnc(O)nc1NCc1ccccc1Cl

AC50 (Cytochrome P450 2C19; read-out: AC50): 15.8 µM (inconclusive)
Structure (SMILES): COCCNc1ccnc(-c2ccccc2C)n1

AC50 (Cytochrome P450 2C19; read-out: AC50): 39.8 µM (inconclusive)
Structure (SMILES): COc1ccc2[nH]cc(CCNc3cc(-c4ccc(C(=O)N(C)C)cc4)ncn3)c2c1

AC50 (Cytochrome P450 3A4): 39.8 µM (inconclusive)
Structure (SMILES): N#Cc1cccc(-c2nc3cnc(N4CCOCC4)nc3n(C3CC3)c2=O)c1

AC50 (Cytochrome P450 2C9): 4.47 µM (inconclusive)
Structure (SMILES): Clc1ccc(SCc2cc(-c3ccccc3)no2)cc1

AC50 (Cytochrome P450 1A2): 15.8 µM (inconclusive)
Structure (SMILES): COc1ccc(C(=O)NCS(=O)(=O)c2ccc(C)cc2)cc1

AC50 (Cytochrome P450 3A4): 3.98 µM (inconclusive)
Structure (SMILES): COc1ccc(COC(=O)N/N=C2/C[C@@H](O)[C@@H](O)[C@@H]3[C@@H]4C(=O)N([C@@H](C)c5ccccc5)C(=O)[C@H]4CC[C@H]23)cc1

AC50 (Cytochrome P450 2C19; read-out: AC50): 0.562 µM (inconclusive)
Structure (SMILES): Cc1cccc(-c2noc(-c3cc4ccccc4oc3=O)n2)c1
